Patent US9296725B2, “Heterocyclyl pyrimidine analogues as TYK2 inhibitors” (Cellzome Limited, priority 2012, dated 2016)

Key:
[1] = molecular target: T1, TYK2 (Homo sapiens, UniProt P29597); experiment: Kinobeads assay, TYK2 (competition binding in mixed Molt4/Ramos cell lysate, dot blot detection); conditions: Kinobeads assay, Molt4/Ramos lysate; read-out: TYK2 Band (Kinobeads assay potency, IC50)
T1 construct: endogenous in cells; host or cells: Molt4 (ATCC CRL-1582) and Ramos (ATCC CRL-1596), mixed lysate 1:2
T1 sequence (P29597 whole entry): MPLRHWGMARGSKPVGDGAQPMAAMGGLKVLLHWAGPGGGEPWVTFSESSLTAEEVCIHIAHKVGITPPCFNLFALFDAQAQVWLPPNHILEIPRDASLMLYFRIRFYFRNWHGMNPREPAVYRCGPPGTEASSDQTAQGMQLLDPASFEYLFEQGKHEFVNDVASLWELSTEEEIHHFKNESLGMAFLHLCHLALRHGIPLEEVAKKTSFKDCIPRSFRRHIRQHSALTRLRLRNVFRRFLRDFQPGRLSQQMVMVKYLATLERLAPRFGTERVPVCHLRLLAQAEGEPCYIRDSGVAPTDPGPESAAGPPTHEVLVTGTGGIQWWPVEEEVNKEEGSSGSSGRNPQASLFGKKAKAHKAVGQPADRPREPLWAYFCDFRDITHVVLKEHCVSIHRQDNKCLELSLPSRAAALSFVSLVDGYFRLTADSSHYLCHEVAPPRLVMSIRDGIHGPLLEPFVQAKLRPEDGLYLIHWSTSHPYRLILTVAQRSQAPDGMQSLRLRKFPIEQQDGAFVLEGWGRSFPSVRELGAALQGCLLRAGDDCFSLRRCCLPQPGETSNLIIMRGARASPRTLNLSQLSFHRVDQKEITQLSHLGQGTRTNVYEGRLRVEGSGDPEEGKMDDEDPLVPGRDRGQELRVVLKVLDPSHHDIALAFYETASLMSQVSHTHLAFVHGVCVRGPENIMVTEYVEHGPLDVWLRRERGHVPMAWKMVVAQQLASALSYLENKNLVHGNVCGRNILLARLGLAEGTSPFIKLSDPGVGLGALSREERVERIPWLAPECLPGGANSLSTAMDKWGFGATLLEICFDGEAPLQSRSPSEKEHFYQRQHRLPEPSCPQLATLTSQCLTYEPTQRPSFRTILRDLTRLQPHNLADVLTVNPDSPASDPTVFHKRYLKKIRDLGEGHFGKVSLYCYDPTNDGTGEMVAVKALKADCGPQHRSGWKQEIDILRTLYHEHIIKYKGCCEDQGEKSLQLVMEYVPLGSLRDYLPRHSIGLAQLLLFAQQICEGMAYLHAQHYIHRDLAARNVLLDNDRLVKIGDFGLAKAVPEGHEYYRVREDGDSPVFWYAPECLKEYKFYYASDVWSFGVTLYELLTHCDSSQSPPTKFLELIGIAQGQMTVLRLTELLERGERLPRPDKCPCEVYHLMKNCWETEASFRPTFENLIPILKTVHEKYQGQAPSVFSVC
How it was run: (§1)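 JAK2 and TYK2 retained on Kinobeads (immobilized aminopyrido-pyrimidine ligand) from 1:2 Molt4:Ramos lysate (10 mg/mL) were quantified by antibody dot blot (Odyssey infrared) after 3 h cold incubation with compound. Nine-step 1:3 dilution series; IC50 calculated from curves.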

[2] = molecular target: T2, JAK2 (Homo sapiens, UniProt O60674); experiment: Kinobeads assay, JAK2 (competition binding in mixed Molt4/Ramos cell lysate, dot blot detection); conditions: read-out: JAK2 Band (Kinobeads assay potency, IC50)
T2 construct: endogenous in cells; host or cells: Molt4 (ATCC CRL-1582) and Ramos (ATCC CRL-1596), mixed lysate 1:2
T2 sequence (O60674 whole entry): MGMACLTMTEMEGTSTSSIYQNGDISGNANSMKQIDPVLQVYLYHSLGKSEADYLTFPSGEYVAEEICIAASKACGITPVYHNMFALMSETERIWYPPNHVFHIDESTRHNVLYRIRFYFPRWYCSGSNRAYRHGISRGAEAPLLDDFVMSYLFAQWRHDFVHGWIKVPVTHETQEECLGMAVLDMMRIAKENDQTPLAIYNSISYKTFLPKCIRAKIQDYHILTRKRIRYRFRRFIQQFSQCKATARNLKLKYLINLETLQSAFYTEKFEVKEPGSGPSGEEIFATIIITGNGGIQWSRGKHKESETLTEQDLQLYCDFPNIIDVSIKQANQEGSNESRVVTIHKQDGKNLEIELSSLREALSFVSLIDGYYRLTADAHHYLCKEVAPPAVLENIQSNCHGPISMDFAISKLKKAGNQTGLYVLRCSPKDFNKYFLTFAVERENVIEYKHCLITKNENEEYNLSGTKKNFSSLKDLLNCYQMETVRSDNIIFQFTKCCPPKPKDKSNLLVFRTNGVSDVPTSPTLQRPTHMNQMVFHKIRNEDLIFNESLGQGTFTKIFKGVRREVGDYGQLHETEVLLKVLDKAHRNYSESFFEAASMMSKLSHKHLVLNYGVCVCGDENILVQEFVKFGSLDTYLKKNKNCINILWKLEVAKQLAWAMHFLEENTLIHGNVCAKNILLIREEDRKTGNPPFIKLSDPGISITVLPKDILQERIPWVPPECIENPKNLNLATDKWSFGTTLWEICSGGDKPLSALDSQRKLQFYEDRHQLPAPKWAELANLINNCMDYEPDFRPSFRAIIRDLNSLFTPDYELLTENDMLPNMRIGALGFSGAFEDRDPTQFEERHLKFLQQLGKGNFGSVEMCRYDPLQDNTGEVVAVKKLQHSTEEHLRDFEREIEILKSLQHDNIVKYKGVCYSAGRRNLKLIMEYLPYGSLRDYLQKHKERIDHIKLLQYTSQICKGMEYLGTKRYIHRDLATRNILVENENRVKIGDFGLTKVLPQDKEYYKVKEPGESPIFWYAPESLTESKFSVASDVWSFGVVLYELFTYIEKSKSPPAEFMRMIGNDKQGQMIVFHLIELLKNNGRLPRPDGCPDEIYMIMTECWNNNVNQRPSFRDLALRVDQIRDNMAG
How it was run: as §1

Compound	IC50 [1] [nM]	IC50 [2] [nM]
Cc1cnc(Nc2cnn(CC(=O)NC3CCC3)c2)nc1NCc1c(F)cc(F)cc1F [Example I-33]	10 to 100	1000 to 10000
N#C[C@H]1CCN(C(=O)Cn2cc(Nc3ncc(Cl)c(NCc4ccccc4)n3)cn2)C1 [Example I-270]	10 to 100	1000 to 10000
NC(=O)Cn1cc(Nc2ncc(F)c(NCc3c(F)cc(F)cc3F)n2)cn1 [Example I-157]	10 to 100	1000 to 10000
O=C(Cn1cc(Nc2ncc(F)c(NCc3c(F)cc(F)cc3F)n2)cn1)N1CCOCC1 [Example I-26]	≤ 10	1000 to 10000
C[C@@H](CO)NC(=O)Cn1cc(Nc2nccc(NCc3c(F)cc(F)cc3F)n2)cn1 [Example I-75]	≤ 10	> 10000
CS(=O)(=O)c1ccccc1CNc1nc(Nc2cnn(CCO)c2)ncc1Cl [Example I-266]	100 to 1000	1000 to 10000
COc1c(F)cc(F)cc1CNc1nc(Nc2cnn(CC(F)(F)F)c2)ncc1C [Example I-352]	1000 to 10000	1000 to 10000
O=C(Cn1cc(Nc2ncc(Cl)c(NCc3c(F)cccc3F)n2)cn1)N1CCOCC1 [Example I-161]	≤ 10	100 to 1000
NS(=O)(=O)c1ccc(CNc2nc(Nc3cnn(CC(=O)NC4CC4)c3)ncc2Cl)cc1 [Example I-10]	10 to 100	> 10000
CS(=O)(=O)NCc1cccc(CNc2nc(Nc3cnn(CC(=O)N4CCC[C@H]4C#N)c3)ncc2Cl)c1 [Example I-400]	100 to 1000	1000 to 10000
O=C(Cn1cc(Nc2nccc(NCc3c(F)cc(F)cc3F)n2)cn1)N[C@@H]1CCOC1 [Example I-137]	10 to 100	1000 to 10000
COc1ccc(F)c(CNc2nc(Nc3cnn(CC(=O)N(C)C)c3)ncc2C)c1F [Example I-20]	≤ 10	100 to 1000
CC(C)(CO)NC(=O)Cn1cc(Nc2nccc(NCc3c(F)cc(F)cc3F)n2)cn1 [Example I-460]	10 to 100	1000 to 10000
C[C@@H](CO)NC(=O)Cn1cc(Nc2nccc(NCc3c(F)ccc(C#N)c3F)n2)cn1 [Example I-153]	≤ 10	1000 to 10000
CN(C)C(=O)Cn1cc(Nc2ncc(Cl)c(NCc3cc(Br)cc(F)c3F)n2)cn1 [Example I-263]	100 to 1000	100 to 1000
CN(Cc1cccc(CNc2nc(Nc3cnn(CCO)c3)ncc2Cl)c1)S(C)(=O)=O [Example I-398]	100 to 1000	1000 to 10000
OCCn1cc(Nc2ncc(Cl)c(NCc3c(Cl)cccc3Cl)n2)cn1 [Example I-323]	10 to 100	100 to 1000
Cc1cnc(Nc2cnn(CC(=O)NC3CC3)c2)nc1NCc1cc(F)ccc1F [Example I-346]	10 to 100	100 to 1000
O=C(Cn1cc(Nc2nccc(NCc3c(F)cc(F)cc3F)n2)cn1)NCCF [Example I-90]	10 to 100	1000 to 10000
Cc1cnc(Nc2cnn(C)c2)nc1NCc1c(F)cccc1F [Example I-418]	10 to 100	100 to 1000
C[C@@H](CO)NC(=O)Cn1cc(Nc2nccc(NCc3c(Cl)ccc(Cl)c3F)n2)cn1 [Example I-121]	≤ 10	100 to 1000
COC[C@H](C)NC(=O)Cn1cc(Nc2ncc(F)c(NCc3c(F)cc(F)cc3F)n2)cn1 [Example I-71]	10 to 100	> 10000
CNC(=O)Cn1cc(Nc2ncc(Cl)c(NCc3cccc(CS(C)(=O)=O)c3)n2)cn1 [Example I-445]	100 to 1000	1000 to 10000

Compound	IC50 [1] [nM]	IC50 [2] [nM]
Cc1cnc(Nc2cnn(CC(=O)NC3CC3)c2)nc1NCc1cc(F)cc(F)c1F [Example I-101]	10 to 100	100 to 1000
CS(=O)(=O)c1ccccc1CNc1nc(Nc2cnn(CC3CC3)c2)ncc1Cl [Example I-476]	1000 to 10000	1000 to 10000
Cc1cnc(Nc2cnn(CC(=O)NC(C)C)c2)nc1NCc1c(F)cc(F)cc1F [Example I-32]	≤ 10	1000 to 10000
CC(O)Cn1cc(Nc2ncc(Cl)c(NCc3cccc(F)c3)n2)cn1 (centres unmarked) [Example I-214]	100 to 1000	1000 to 10000
CC(NC(=O)Cn1cc(Nc2nccc(NCc3c(F)cc(F)cc3F)n2)cn1)C1CCCO1 (centres unmarked) [Example I-431]	10 to 100	> 10000
COc1ccc(F)c(CNc2ccnc(Nc3cnn(CC(=O)N[C@H](C)CO)c3)n2)c1F [Example I-124]	10 to 100	1000 to 10000
Cc1cnc(Nc2cnn(CC(=O)N(C)C)c2)nc1NCc1ccccc1 [Example I-300]	100 to 1000	1000 to 10000
OCCn1cc(Nc2ncc(Cl)c(NCc3cccc(C(F)F)c3)n2)cn1 [Example I-293]	100 to 1000	100 to 1000
Cn1cc(Nc2ncc(Cl)c(NCc3cncc(F)c3)n2)cn1 [Example I-258]	100 to 1000	100 to 1000
CNC(=O)Cn1cc(Nc2ncc(C)c(NCc3c(F)cccc3F)n2)cn1 [Example I-419]	10 to 100	100 to 1000
CN1CCC(n2cc(Nc3ncc(Cl)c(NCc4ccccc4)n3)cn2)C1=O (centres unmarked) [Example I-253]	100 to 1000	100 to 1000
Cc1cnc(Nc2cnn(CCC(F)(F)F)c2)nc1NCc1cc(F)cc(F)c1 [Example I-463]	1000 to 10000	1000 to 10000
N#CCOc1cccc(CNc2nc(Nc3cnn(CC(N)=O)c3)ncc2Cl)c1 [Example I-362]	100 to 1000	1000 to 10000
Cc1cnc(Nc2cnn(CC(F)(F)F)c2)nc1NCc1cc(F)ccc1F [Example I-353]	100 to 1000	1000 to 10000
CS(=O)(=O)c1ccc(F)c(CNc2nc(Nc3cnn(CC(N)=O)c3)ncc2Cl)c1 [Example I-100]	10 to 100	100 to 1000
N#CCNC(=O)Cn1cc(Nc2nccc(NCc3c(F)cc(F)cc3F)n2)cn1 [Example I-110]	10 to 100	> 10000
COc1ccc(Cl)c(CNc2ccnc(Nc3cnn(CC(=O)N[C@H](C)CO)c3)n2)c1F [Example I-123]	≤ 10	100 to 1000
Cc1ccc(F)c(CNc2ccnc(Nc3cnn(CC(=O)N[C@@H](C)CO)c3)n2)c1F [Example I-130]	10 to 100	1000 to 10000
Cc1cnc(Nc2cnn(CCO)c2)nc1NCc1ccccc1S(C)(=O)=O [Example I-433]	100 to 1000	1000 to 10000
Cn1cc(Nc2ncc(Cl)c(NCc3ccccc3)n2)cn1 [Example I-158]	100 to 1000	1000 to 10000
OCCn1cc(Nc2ncc(F)c(NCc3c(F)ccc(F)c3F)n2)cn1 [Example I-202]	≤ 10	100 to 1000
C[C@H](O)Cn1cc(Nc2ncc(Cl)c(NCc3ccccc3F)n2)cn1 [Example I-257]	100 to 1000	100 to 1000
Fc1cccc(F)c1CNc1nc(Nc2cnn(C(F)F)c2)ncc1Cl [Example I-224]	100 to 1000	1000 to 10000

Compound	IC50 [1] [nM]	IC50 [2] [nM]
O=C(Cn1cc(Nc2nccc(NCc3c(F)cc(F)cc3F)n2)cn1)NCC1COCCO1 (centres unmarked) [Example I-432]	10 to 100	1000 to 10000
COc1ccc(F)c(CNc2nc(Nc3cnn(CCO)c3)ncc2Cl)c1F [Example I-320]	10 to 100	100 to 1000
NC(=O)Cn1cc(Nc2ncc(Cl)c(NCc3cc(Br)cc(F)c3F)n2)cn1 [Example I-261]	100 to 1000	100 to 1000
C[C@H](CO)NC(=O)Cn1cc(Nc2nccc(NCc3c(Cl)ccc(Cl)c3F)n2)cn1 [Example I-131]	10 to 100	100 to 1000
COc1ccc(F)c(CNc2nc(Nc3cnn(CC(=O)N(C)C(C)C)c3)ncc2F)c1F [Example I-57]	≤ 10	1000 to 10000
Cc1cnc(Nc2cnn(CC(=O)N(C)C)c2)nc1NCc1c(F)ccc(F)c1F [Example I-422]	≤ 10	100 to 1000
[2H]C([2H])(O)C([2H])([2H])n1cc(Nc2ncc(Cl)c(NCc3cccc(OC)c3)n2)cn1 [Example I-235]	100 to 1000	1000 to 10000
Fc1cc(F)c(CNc2nc(Nc3cn[nH]c3)ncc2Cl)c(F)c1 [Example I-372]	10 to 100	1000 to 10000
Cn1cc(Nc2ncc(Cl)c(NCc3ncccc3F)n2)cn1 [Example I-260]	100 to 1000	1000 to 10000
CCNC(=O)c1cccc(CNc2nc(Nc3cnn(CCO)c3)ncc2Cl)c1 [Example I-241]	100 to 1000	1000 to 10000
Cc1cnc(Nc2cnn(CC(=O)O)c2)nc1NCc1c(F)ccc(F)c1F [Example I-424]	10 to 100	100 to 1000
COc1ccc(Cl)c(CNc2ccnc(Nc3cnn(CC(=O)N[C@@H](C)CO)c3)n2)c1F [Example I-122]	≤ 10	100 to 1000
Clc1cnc(Nc2cnn(Cc3ncco3)c2)nc1NCc1ccccc1 [Example I-249]	1000 to 10000	1000 to 10000
O=C(Cn1cc(Nc2nccc(NCc3c(F)ccc(F)c3F)n2)cn1)NC1CC1 [Example I-144]	≤ 10	1000 to 10000
OCCn1cc(Nc2ncc(F)c(NCc3ccccc3)n2)cn1 [Example I-193]	100 to 1000	1000 to 10000
CC(C)NC(=O)Cn1cc(Nc2nccc(NCc3c(F)cccc3Cl)n2)cn1 [Example I-77]	≤ 10	1000 to 10000
OCCn1cc(Nc2ncc(Cl)c(NCc3c(F)ccc(F)c3F)n2)cn1 [Example I-373]	≤ 10	10 to 100
Cc1cccc(F)c1CNc1ccnc(Nc2cnn(CC(=O)NC(C)C)c2)n1 [Example I-155]	≤ 10	1000 to 10000
CN(C)C(=O)Cn1cc(Nc2ncc(Cl)c(NCc3ccccc3S(C)(=O)=O)n2)cn1 [Example I-452]	100 to 1000	100 to 1000
CC(C)NC(=O)Cn1cc(Nc2ncc(Cl)c(NCc3c(F)cc(F)cc3F)n2)cn1 [Example I-393]	10 to 100	> 10000
NS(=O)(=O)c1ccc(F)c(CNc2nc(Nc3cnn(CCO)c3)ncc2Cl)c1 [Example I-226]	10 to 100	1000 to 10000
